The results in this text go back to PubChem BioAssay AID328 (DTP/NCI, 2004).

For the assay, the system named is BDF1 mice, P388 leukemia ip, median survival T/C. Put plainly: NCI In Vivo Anticancer Drug Screen. Data for tumor model P388 Leukemia (intraperitoneal) in B6D2F1 (BDF1) mice. The settings on record: endpoint: median survival time, higher = longer survival. In short, it runs like this:
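T/C = treated-group survival ÷ vehicle-control survival; tumour transplanted into mice before dosing.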

Setting [1] is: dose: 100.0 mg/kg/injection, schedule: Q01DX009 (ip), vehicle: saline with Tween-80.
Where [2] appears, read: dose: 200.0 mg/kg/injection, schedule: Q01DX009 (ip), vehicle: saline with Tween-80.
Where [3] appears, read: dose: 400.0 mg/kg/injection, schedule: Q01DX009 (ip), vehicle: saline with Tween-80.
[4] abbreviates: dose: 400.0 mg/kg/injection, schedule: Q04DX003 (ip), vehicle: saline with Tween-80.
The mark [5] stands for this setting: dose: 100.0 mg/kg/injection, schedule: Q04DX003 (ip), vehicle: Klucel (hydroxypropylcellulose) (HPC).
[6] abbreviates: dose: 200.0 mg/kg/injection, schedule: Q04DX003 (ip), vehicle: Klucel (hydroxypropylcellulose) (HPC).
[7] abbreviates: dose: 400.0 mg/kg/injection, schedule: Q04DX003 (ip), vehicle: Klucel (hydroxypropylcellulose) (HPC).
Setting [8] is: dose: 100.0 mg/kg/injection, schedule: Q01DX001 (ip), vehicle: Klucel (hydroxypropylcellulose) (HPC).
Setting [9] is: dose: 200.0 mg/kg/injection, schedule: Q01DX001 (ip), vehicle: Klucel (hydroxypropylcellulose) (HPC).
The mark [10] stands for this setting: dose: 400.0 mg/kg/injection, schedule: Q01DX001 (ip), vehicle: Klucel (hydroxypropylcellulose) (HPC).
Setting [11] is: dose: 100.0 mg/kg/injection, schedule: Q01DX009 (ip), vehicle: Klucel (hydroxypropylcellulose) (HPC).
Setting [12] is: dose: 75.0 mg/kg/injection, schedule: Q01DX009 (ip), vehicle: saline with Tween-80.
Where [13] appears, read: dose: 150.0 mg/kg/injection, schedule: Q01DX009 (ip), vehicle: saline with Tween-80.
[14] abbreviates: dose: 300.0 mg/kg/injection, schedule: Q01DX009 (ip), vehicle: saline with Tween-80.
Where [15] appears, read: dose: 50.0 mg/kg/injection, schedule: Q01DX009 (ip), vehicle: saline with Tween-80.
The mark [16] stands for this setting: dose: 200.0 mg/kg/injection, schedule: Q01DX009 (ip), vehicle: Klucel (hydroxypropylcellulose) (HPC).
Setting [17] is: dose: 400.0 mg/kg/injection, schedule: Q01DX009 (ip), vehicle: Klucel (hydroxypropylcellulose) (HPC).

Values joined by “and” are separate entries in the source; they are usually repeats but may differ in a detail not shown here. Equal values may be shown once. Toxic doses and inconclusive results are not listed.

`Cc1ccccc1-c1nc2c(N)nc(N)nc2nc1N`: the T/C was 122 % of control under setting [1]; 163 % of control under setting [2]; 100 % of control and 104 % of control (dose: 264.0 mg/kg/injection, schedule: Q04DX003 (ip), vehicle: saline with Tween-80); 200 % of control under setting [3]; 118 % of control under setting [4]; 118 % of control (dose: 600.0 mg/kg/injection, schedule: Q04DX003 (ip), vehicle: saline with Tween-80).

For the molecule `CC1(C)CC(C)(OC(=O)c2ccccc2)N=N1` (stereo not given), the T/C is 98 % of control (dose: 25.0 mg/kg/injection, schedule: Q01DX005 (ip), vehicle: other); 98 % of control (dose: 50.0 mg/kg/injection, schedule: Q01DX005 (ip), vehicle: other); 99 % of control (dose: 100.0 mg/kg/injection, schedule: Q01DX005 (ip), vehicle: other); 99 % of control (dose: 200.0 mg/kg/injection, schedule: Q01DX005 (ip), vehicle: other); 119 % of control (dose: 400.0 mg/kg/injection, schedule: Q01DX005 (ip), vehicle: other).

Turning to `Cn1cc(N)c2ccccc2c1=O`, the T/C runs as follows: (dose: 50.0 mg/kg/injection, schedule: Q01DX005 (ip), vehicle: suspension in saline) 92 % of control; (dose: 100.0 mg/kg/injection, schedule: Q01DX005 (ip), vehicle: suspension in saline) 120 % of control.

As to `CC(=O)OC(C(=O)c1ccccc1)c1ccccc1` (stereo not given), the T/C by setting is: under setting [5], 95 % of control; under setting [6], 104 % of control; under setting [7], 108 % of control.

As to `Cc1ccc(NC(=O)c2ccc([N+](=O)[O-])cc2)c(C)c1`, the T/C was 100 % of control (dose: 100.0 mg/kg/injection, schedule: Q04DX003 (ip), vehicle: saline with Tween-80); 104 % of control (dose: 200.0 mg/kg/injection, schedule: Q04DX003 (ip), vehicle: saline with Tween-80); 96 % of control under setting [4].

As for `Cc1c(O)ccc2c1CCCC2`, the T/C (dose: 50.0 mg/kg/injection, schedule: Q01DX001 (ip), vehicle: saline sonified) was 90 % of control; the T/C (dose: 100.0 mg/kg/injection, schedule: Q01DX001 (ip), vehicle: saline sonified) is 104 % of control; the T/C (dose: 200.0 mg/kg/injection, schedule: Q01DX001 (ip), vehicle: saline sonified) is 100 % of control.

For the molecule `Cn1c(=O)[nH]c2ccccc2c1=O`, the T/C by setting is: under setting [8], 104 % of control; under setting [9], 104 % of control; under setting [10], 107 % of control.

With `O/N=C\c1ccccc1`, the T/C is, setting by setting: (dose: 25.0 mg/kg/injection, schedule: Q01DX009 (ip), vehicle: Klucel (hydroxypropylcellulose) (HPC)) 108 % of control; (dose: 50.0 mg/kg/injection, schedule: Q01DX009 (ip), vehicle: Klucel (hydroxypropylcellulose) (HPC)) 95 % of control; (dose: 75.0 mg/kg/injection, schedule: Q04DX003 (ip), vehicle: saline with Tween-80) 110 % of control; under setting [11], 91 % of control; (dose: 150.0 mg/kg/injection, schedule: Q04DX003 (ip), vehicle: saline with Tween-80) 105 % of control.

With `CCOC(=O)c1c(C(=O)OCC)c(C)n(NC(=S)NC)c1C`, the T/C under setting [12] is 103 % of control, the T/C under setting [13] is 89 % of control and the T/C under setting [14] was 93 % of control.

For the molecule `O=C1c2c(O)ccc([N+](=O)[O-])c2C(=O)c2c([N+](=O)[O-])ccc(O)c21`, the T/C under setting [5] was 118 % of control, the T/C under setting [6] is 122 % of control and the T/C under setting [7] was 113 % of control.

As for `C[C@@H]1C[C@H]2C(=CC1=O)CC[C@@H]1[C@@H]2CC[C@]2(C)[C@@H](O)CC[C@@H]12`, the T/C is 100 % of control under setting [1], 109 % of control under setting [2] and 109 % of control under setting [3].

For the molecule `O=C(O)CCc1ccccc1`, the T/C is, setting by setting: under setting [12], 95 % of control; under setting [8], 104 % of control; under setting [13], 109 % of control; under setting [9], 100 % of control; under setting [14], 100 % of control; under setting [10], 100 % of control.

As to `COc1ccc(CNCC(OC)OC)cc1O`, the T/C runs as follows: (dose: 100.0 mg/kg/injection, schedule: Q01DX001 (ip), vehicle: saline with Tween-80) 99 % of control; (dose: 200.0 mg/kg/injection, schedule: Q01DX001 (ip), vehicle: saline with Tween-80) 102 % of control.

On to `O=S1(=O)CCCO1`, for which the T/C is 95 % of control under setting [15] and 113 % of control under setting [1].

As for `CCSC1(SCC)C(=O)OC2=C(CCCCC2)C1N(C)c1ccccc1` (stereo not given), the T/C was 87 % of control under setting [15] and 96 % of control under setting [2].

For the molecule `COc1cc(C(=O)CCC(=O)O)cc(OC)c1OC`, the T/C is 100 % of control under setting [11]; 100 % of control under setting [16]; 105 % of control under setting [6]; 95 % of control under setting [17]; 115 % of control under setting [7].

In the case of `C[C@]12CC[C@@H]3c4ccc(O)cc4CC[C@H]3[C@@H]1CC[C@@H]2OC(=O)CCC1CCCC1`, the T/C runs as follows: under setting [11], 100 % of control; under setting [5], 104 % of control; under setting [16], 95 % of control; under setting [6], 104 % of control; under setting [17], 104 % of control; under setting [7], 104 % of control.

For the molecule `COP(=O)(OC)OC=C(Cl)Cl`, the T/C was 100 % of control (dose: 6.25 mg/kg/injection, schedule: Q01DX009 (ip), vehicle: saline with Tween-80); 103 % of control (dose: 12.5 mg/kg/injection, schedule: Q01DX009 (ip), vehicle: saline with Tween-80); 102 % of control (dose: 25.0 mg/kg/injection, schedule: Q01DX009 (ip), vehicle: saline with Tween-80).

For `CC(C)(C)C1CCC(C#N)(NNc2ccccc2)CC1` (stereo not given), the T/C is, setting by setting: (dose: 50.0 mg/kg/injection, schedule: Q01DX005 (ip), vehicle: saline with Tween-80) 90 % of control; (dose: 100.0 mg/kg/injection, schedule: Q01DX005 (ip), vehicle: saline with Tween-80) 106 % of control; (dose: 200.0 mg/kg/injection, schedule: Q01DX005 (ip), vehicle: saline with Tween-80) 89 % of control.

As to `CC(C#N)(Nc1ccccc1)c1ccco1` (stereo not given), the T/C by setting is: (dose: 6.25 mg/kg/injection, schedule: Q04DX003 (ip), vehicle: other) 100 % of control; (dose: 12.5 mg/kg/injection, schedule: Q04DX003 (ip), vehicle: other) 100 % of control; (dose: 25.0 mg/kg/injection, schedule: Q04DX003 (ip), vehicle: other) 100 % of control.

Take `Cn1cc(/C=C/C(N)=O)c2nccnc21`: the T/C reads like this: (dose: 1.56 mg/kg/injection, schedule: Q01DX009 (ip), vehicle: water) 114 % of control; (dose: 3.12 mg/kg/injection, schedule: Q01DX009 (ip), vehicle: water) 100 % of control; (dose: 3.12 mg/kg/injection, schedule: Q04DX003 (ip), vehicle: water) 115 % of control; (dose: 6.25 mg/kg/injection, schedule: Q01DX009 (ip), vehicle: water) 95 % of control; (dose: 6.25 mg/kg/injection, schedule: Q04DX003 (ip), vehicle: water) 106 % of control; (dose: 12.5 mg/kg/injection, schedule: Q01DX009 (ip), vehicle: water) 96 % of control. Further, the T/C (dose: 12.5 mg/kg/injection, schedule: Q04DX003 (ip), vehicle: water) was 98 % of control; the T/C (dose: 25.0 mg/kg/injection, schedule: Q01DX009 (ip), vehicle: water) was 100 % of control and 102 % of control; the T/C (dose: 25.0 mg/kg/injection, schedule: Q04DX003 (ip), vehicle: water) is 98 % of control; the T/C (dose: 50.0 mg/kg/injection, schedule: Q01DX009 (ip), vehicle: water) is 86 % of control; the T/C (dose: 50.0 mg/kg/injection, schedule: Q04DX003 (ip), vehicle: water) was 102 % of control.

On to `CC1(C)OCC(C2OC3OC(C)(C)OC3C2OP(=O)(N2CC2)N2CC2)O1` (stereo not given), for which the T/C by setting is: under setting [15], 103 % of control; under setting [1], 115 % of control; under setting [2], 123 % of control.
